Measurements from US9233111B2, “Pyrrolo pyrimidine derivatives” (NOVARTIS AG, priority 2011, dated 2016).

Each molecule was assayed against full-length human recombinant BTK (Homo sapiens (Human), UniProt Q06187) (assay: Inhibition of Btk enzymatic activity (biochemical enzyme assay, Caliper)). Details: 30° C., 60 minutes.
Sequence of full-length human recombinant BTK (Q06187 whole entry): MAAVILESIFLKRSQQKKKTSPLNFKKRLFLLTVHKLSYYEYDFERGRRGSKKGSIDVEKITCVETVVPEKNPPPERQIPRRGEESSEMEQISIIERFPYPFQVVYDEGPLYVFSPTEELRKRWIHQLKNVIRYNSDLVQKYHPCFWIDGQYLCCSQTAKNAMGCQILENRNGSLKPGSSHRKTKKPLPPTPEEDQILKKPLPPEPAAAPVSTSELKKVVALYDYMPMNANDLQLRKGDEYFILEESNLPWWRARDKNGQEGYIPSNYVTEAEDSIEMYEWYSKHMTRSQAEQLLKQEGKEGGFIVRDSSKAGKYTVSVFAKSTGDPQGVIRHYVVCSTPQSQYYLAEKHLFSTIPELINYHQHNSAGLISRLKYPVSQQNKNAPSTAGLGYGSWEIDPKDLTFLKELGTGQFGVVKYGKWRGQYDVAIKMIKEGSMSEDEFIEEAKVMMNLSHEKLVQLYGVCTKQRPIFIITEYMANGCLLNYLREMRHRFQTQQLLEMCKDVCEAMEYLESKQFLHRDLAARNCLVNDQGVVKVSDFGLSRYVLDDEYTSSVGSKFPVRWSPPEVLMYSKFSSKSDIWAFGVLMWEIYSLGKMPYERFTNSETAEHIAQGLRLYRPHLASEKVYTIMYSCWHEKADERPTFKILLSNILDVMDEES
Experimental: The inhibitory activity of the present compounds against Btk was assessed in a biochemical enzyme assay. Assay plates in 384 well format were prepared with 8-point serial dilutions for the test compounds on a Thermo CatX workstation equipped with a Innovadyne Nanodrop Express. The assay plates were prepared by addition of 50 nl per well of compound solution in 90% DMSO. The kinase reactions were started by stepwise addition of 4.5 μl per well of peptide/ATP-solution (4 μM FITC-Ahx-[…]-NH2, 164 μM ATP) in kinase buffer (50 mM HEPES, pH 7.5, 1 mM DTT, 0.02% Tween20, 0.02% BSA, 0.6% DMSO, 10 mM beta-glycerophosphate, and 10 μM sodium orthovanadate, 18 mM MgCl2, 1 mM MnCl2) and 4.5 μl per well of enzyme solution (6.4 nM full-length human recombinant BTK) in kinase buffer. Kinase reactions were incubated at 30° C. for 60 minutes and subsequently terminated by addition of 16 μl per well of stop solution (100 mM HEPES pH 7.5, 5% DMSO, 0.1% Caliper coating reagent, 10 mM EDTA, and 0.015% Brij35). Kinase reactions were analyzed on a Caliper LC3000 workstation by separating phosphorylated and unphosphorylated peptides and kinase activities were calculated from the amounts of newly formed phospho-peptide. Inhibition data were calculated by comparison to control reactions without enzyme (100% inhibition) and without inhibitors (0% inhibition). The concentration of inhibitor required for 50% inhibition (IC50) was calculated from the inhibition in response to inhibitor concentrations.
Cc1c(NC(=O)c2ccc(C(C)(C)C)cc2)cc(F)cc1-c1ncnc2[nH]c(C3=CCC(O)CC3)cc12 (stereo not shown) [Example 28, 4-tert-Butyl-N-{5-fluoro-3-[6-(4-hydroxy-cyclohex-1-enyl)-7H-pyrrolo[2,3-d]pyrimidin-4-yl]-2-methyl-phenyl}-benzamide] showed an IC50 of 46 nM.
Cc1c(NC(=O)c2ccc(C3CC3)cc2)cc(F)cc1-c1ncnc2[nH]c(C3=CCN(C(=O)N(C)C)CC3)cc12 [Example 29, 4-{4-[3-(4-Cyclopropyl-benzoylamino)-5-fluoro-2-methyl-phenyl]-7H-pyrrolo[2′3-d]pyrimidin-6-yl}-3,6-dihydro-2H-pyridine-1-carboxylic acid dimethylamide] gave an IC50 of 13 nM.
Molecule Cc1c(NC(=O)c2ccc(C3CC3)cc2)cc(F)cc1-c1ncnc2[nH]c(C3=CCN(C(=O)N4CCCC4)CC3)cc12 [Example 30, 4-Cyclopropyl-N-(5-fluoro-2-methyl-3-{6-[1-(pyrrolidine-1-carbonyl)-1,2,3,6-tetrahydro-pyridin-4-yl]-7H-pyrrolo[2,3-d]pyrimidin-4-yl}-phenyl)-benzamide] has an IC50 of 6 nM.
In the case of CC(=O)OCC(=O)N1CC=C(c2cc3c(-c4cc(F)cc(NC(=O)c5ccc(C6CC6)cc5)c4C)ncnc3[nH]2)CC1 [Example 31, Acetic acid 2-(4-{4-[3-(4 cyclopropyl-benzoylamino)-5-fluoro-2-methyl-phenyl]-7H-pyrrolo[2,3-d]pyrimidin-6-yl}-3,6-dihydro-2H-pyridin-1-yl)-2-oxo-ethyl ester], the IC50 is reported as 3 nM.
Cc1c(NC(=O)c2ccc(S(F)(F)(F)(F)F)cc2)cc(F)cc1-c1ncnc2[nH]c(C3=CCN(C(=O)N4CCCC4)CC3)cc12 [Example 34, N-(5-Fluoro-2-methyl-3-{6-[1-(pyrrolidine-1-carbonyl)-1,2,3,6-tetrahydro-pyridin-4-yl]-7H-pyrrolo[2,3-d]pyrimidin-4-yl}-phenyl)-4-(pentafluoro-sulfanyl)-benzamide] was tested, and the IC50 was 34 nM.
Work on CC(=O)OCC(=O)N1CC=C(c2cc3c(-c4cc(F)cc(NC(=O)c5ccc(S(F)(F)(F)(F)F)cc5)c4C)ncnc3[nH]2)CC1 [Example 35, Acetic acid 2-[4-(4-{5-fluoro-2-methyl-3-[4-(pentafluoro-sulfanyl)-benzoylamino]-phenyl}-7H-pyrrolo[2,3-d]pyrimidin-6-yl)-3,6-dihydro-2H-pyridin-1-yl]-2-oxo-ethyl ester] yielded an IC50 of 14 nM.
In the case of Cc1c(NC(=O)c2ccc(S(F)(F)(F)(F)F)cc2)cc(F)cc1-c1ncnc2[nH]c(C3=CCN(C(=O)CO)CC3)cc12 [Example 36, N-(5-Fluoro-3-{6-[1-(2-hydroxy-acetyl)-1,2,3,6-tetrahydro-pyridin-4-yl]-7H-pyrrolo[2,3-d]pyrimidin-4-yl}-2-methyl-phenyl)-4-(pentafluoro-sulfanyl)-benzamide], the IC50 is reported as 4 nM.
With CN(C)C(=O)N1CC=C(c2cc3c(-c4cccc(NC(=O)c5ccc(C(C)(C)C)cc5)c4CO)ncnc3[nH]2)CC1 [Example 37, 4-{4-[3-(4-tert-Butyl-benzoylamino)-2-hydroxymethyl-phenyl]-7H-pyrrolo[2,3-d]pyrimidin-6-yl}-3,6-dihydro-2H-pyridine-1-carboxylic acid dimethylamide] the IC50 was 26 nM.
Cc1c(NC(=O)c2ccc(C(C)(C)C)cc2)cc(F)cc1-c1ncnc2[nH]c(C3=CCNCC3)cc12 [Example 40, 4-tert-Butyl-N-{5-fluoro-2-methyl-3-[6-(1,2,3,6-tetrahydro-pyridin-4-yl)-7H-pyrrolo[2,3-d]pyrimidin-4-yl]-phenyl}-benzamide] was tested, and the IC50 was 19 nM.
In the case of Cc1c(NC(=O)c2ccc(C(C)(C)C)cc2)cc(F)cc1-c1ncnc2[nH]c(C3=CCN(C(=O)N(C)C)CC3)cc12 [Example 41, 4-{4-[3-(4-tert-Butyl-benzoylamino)-5-fluoro-2-methyl-phenyl]-7H-pyrrolo[2,3-d]pyrimidin-6-yl}-3,6-dihydro-2H-pyridine-1-carboxylic acid dimethylamide], the IC50 is reported as 23 nM.
With Cc1c(NC(=O)c2ccc(C(C)(C)C)cc2)cc(F)cc1-c1ncnc2[nH]c(C3=CCN(S(C)(=O)=O)CC3)cc12 [Example 42, 4-tert-Butyl-N-{5-fluoro-3-[6-(1-methanesulfonyl-1,2,3,6-tetrahydro-pyridin-4-yl)-7H-pyrrolo[2,3-d]pyrimidin-4-yl]-2-methyl-phenyl}-benzamide] the IC50 was 30 nM.
Work on Cc1c(NC(=O)c2ccc(C(C)(C)C)cc2)cc(F)cc1-c1ncnc2[nH]c(C3=CCN(S(=O)(=O)N(C)C)CC3)cc12 [Example 43, 4-tert-Butyl-N-{3-[6 (1 dimethylsulfamoyl-1,2,3,6-tetrahydro-pyridin-4-yl)-7H-pyrrolo[2,3-d]pyrimidin-4-yl]-5-fluoro-2-methyl-phenyl}-benzamide] yielded an IC50 of 140 nM.
In the case of Cc1c(NC(=O)c2ccc(C(C)(C)C)cc2)cccc1-c1ncnc2[nH]c(C3=CCN(S(C)(=O)=O)CC3)cc12 [Example 44, 4-tert-Butyl-N-{3-[6-(1 methanesulfonyl-1,2,3,6-tetrahydro-pyridin-4-yl)-7H-pyrrolo[2,3-d]pyrimidin-4-yl]-2-methyl-phenyl}-benzamide], the IC50 is reported as 17 nM.
CN(C)C(=O)N1CC=C(c2cc3c(-c4cccc(N5CCc6cc(C(C)(C)C)ccc6C5=O)c4CO)ncnc3[nH]2)CC1 [Example 45, 4-{4-[3-(6-tert-Butyl-1-oxo-3,4-dihydro-1H-isoquinolin-2-yl)-2-hydroxymethyl-phenyl]-7H-pyrrolo[2,3-d]pyrimidin-6-yl}-3,6-dihydro-2H-pyridine-1-carboxylic acid dimethylamide] showed an IC50 of 8 nM.
Molecule CN(C)C(=O)N1CC=C(c2cc3c(-c4cccc(N5CCc6cc(C7CC7)ccc6C5=O)c4CO)ncnc3[nH]2)CC1 [Example 46, 4-{4-[3-(6-Cyclopropyl-1-oxo-3,4-dihydro-1H-isoquinolin-2-yl)-2-hydroxymethyl-phenyl]-7H-pyrrolo[2,3-d]pyrimidin-6-yl}-3,6-dihydro-2H-pyridine-1-carboxylic acid dimethylamide] has an IC50 of 17 nM.
For CN(C)C(=O)N1CC=C(c2cc3c(-c4cccc(N5CCc6cc(C(C)(C)O)ccc6C5=O)c4CO)ncnc3[nH]2)CC1 [Example 47, 4-(4-{2-Hydroxymethyl-3-[6-(1-hydroxy-1-methyl-ethyl)-1-oxo-3,4-dihydro-1H-isoquinolin-2-yl]-phenyl}-7H-pyrrolo[2,3-d]pyrimidin-6-yl)-3,6-dihydro-2H-pyridine-1-carboxylic acid dimethylamide], the IC50 was 2 nM.
With CC(C)(C)c1ccc(C(=O)Nc2cccc(-c3ncnc4[nH]c(C5=CCOCC5)cc34)c2CO)cc1 [Example 48, 4-tert-Butyl-N-{3-[6-(3,6-dihydro-2H-pyran-4-yl)-7H-pyrrolo[2,3-d]pyrimidin-4-yl]-2-hydroxymethyl-phenyl}-benzamide] the IC50 was 7 nM.
With Cc1c(NC(=O)c2ccc(C(C)(C)C)cc2)cc(F)cc1-c1ncnc2[nH]c(C3=CCOCC3)cc12 [Example 49, 4-tert-Butyl-N-{3-[6-(3,6-dihydro-2H-pyran-4-yl)-7H-pyrrolo[2,3-d]pyrimidin-4-yl]-5-fluoro-2-methyl-phenyl}-benzamide] the IC50 was 99 nM.
Cc1c(NC(=O)c2ccc(N(C)C)cc2)cc(F)cc1-c1ncnc2[nH]c(C3=CCOCC3)cc12 [Example 50, N-{3-[6-(3,6-Dihydro-2H-pyran-4-yl)-7H-pyrrolo[2,3-d]pyrimidin-4-yl]-5-fluoro-2-methyl-phenyl}-4-dimethylamino-benzamide] showed an IC50 of 47 nM.
Work on Cc1c(NC(=O)c2ccc(C(C)(C)C)cc2)cccc1-c1ncnc2[nH]c(C3=CCSCC3)cc12 [Example 51, 4-tert-Butyl-N-{3-[6-(3,6-dihydro-2H-thiopyran-4-yl)-7H-pyrrolo[2,3-d]pyrimidin-4-yl]-2-methyl-phenyl}-benzamide] yielded an IC50 of 47 nM.
For Cc1c(NC(=O)c2ccc(C(C)(C)C)cc2)cccc1-c1ncnc2[nH]c(C3=CC[S+]([O-])CC3)cc12 (stereo not shown) [Example 52, 4-tert-Butyl-N-{2-methyl-3-[6-(3,6-dihydro-1-oxido-2H-thiopyran-4-yl)-7H-pyrrolo[2,3-d]pyrimidin-4-yl]-phenyl}-benzamide], the IC50 was 24 nM.
Cc1c(NC(=O)c2ccc(C(C)(C)C)cc2)cccc1-c1ncnc2[nH]c(C3=CCS(=O)(=O)CC3)cc12 [Example 53, 4-tert-Butyl-N-{3-[6-(3,6-dihydro-1,1-dioxido-2H-thiopyran-4-yl)-7H-pyrrolo[2,3-d]pyrimidin-4-yl]-2-methyl-phenyl}-benzamide] gave an IC50 of 64 nM.
CC(C)(C)c1ccc(C(=O)Nc2cccc(-c3ncnc4[nH]c(C5=CCC6(CC5)OCCO6)cc34)c2CO)cc1 [Example 54, 4-tert-Butyl-N-{3-[6-(1,4-dioxa-spiro[4.5]dec-7-en-8-yl)-7H-pyrrolo[2,3-d]pyrimidin-4-yl]-2-hydroxymethyl-phenyl}-benzamide] gave an IC50 of 24 nM.
CC(C)(C)c1ccc(C(=O)Nc2cccc(-c3ncnc4[nH]c(C5=CCC(O)CC5)cc34)c2CO)cc1 (stereo not shown) [Example 55, 4-tert-Butyl-N-{3-[6 (4 hydroxy-cyclohex-1-enyl)-7H-pyrrolo[2,3-d]pyrimidin-4-yl]-2-hydroxymethyl-phenyl}-benzamide] was tested, and the IC50 was 4 nM.
CN(C)C1CC=C(c2cc3c(-c4cccc(NC(=O)c5ccc(C(C)(C)C)cc5)c4CO)ncnc3[nH]2)CC1 (stereo not shown) [Example 56, 4-tert-Butyl-N-{3-[6 (4 dimethylamino-cyclohex-1-enyl)-7H-pyrrolo[2,3-d]pyrimidin-4-yl]-2-hydroxymethyl-phenyl}-benzamide] showed an IC50 of 2 nM.
